Measurements as given in US20210205236A1, “THERAPEUTIC COMBINATIONS OF BOSWELLIA EXTRACT AND CANNABINOIDS” (priority 2018, published 2021).
Read-outs that look alike come from different tables or passages of the source.

Columns and labels:
[1] = target: T1, CB1 receptor (Homo sapiens, UniProt P21554); format: cell-based
T1 construct: expressed in transfected cells

[2] = target: T1, CB1 receptor; experiment: cell-based; format: cell-based
[3] = THCA or THC 10 μM without AKBA, CP55940-induced activity = 100%
[4] = THCA or THC 10 μM without AKBA, Table 3 data re-expressed as fold change

T1 sequence (P21554 whole entry): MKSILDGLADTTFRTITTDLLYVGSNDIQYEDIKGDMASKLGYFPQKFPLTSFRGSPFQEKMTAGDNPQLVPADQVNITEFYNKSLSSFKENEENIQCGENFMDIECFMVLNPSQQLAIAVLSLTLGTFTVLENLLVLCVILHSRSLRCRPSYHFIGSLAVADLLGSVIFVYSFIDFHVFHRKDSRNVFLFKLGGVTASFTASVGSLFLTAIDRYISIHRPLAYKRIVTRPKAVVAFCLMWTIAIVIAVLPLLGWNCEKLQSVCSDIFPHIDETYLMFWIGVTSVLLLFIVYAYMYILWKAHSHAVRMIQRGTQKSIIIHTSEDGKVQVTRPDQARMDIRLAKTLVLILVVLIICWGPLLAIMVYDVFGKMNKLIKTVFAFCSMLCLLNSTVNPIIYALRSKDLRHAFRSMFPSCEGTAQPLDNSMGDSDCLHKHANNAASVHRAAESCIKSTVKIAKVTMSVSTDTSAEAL

How did the “Experiment 1 Fold change” value [1] turn out when `CCCCCCC(C)(C)c1ccc([C@@H]2C[C@H](O)CC[C@H]2CCCO)c(O)c1` [CP, CP-55940, reference compound] was run?
Its value is 2.5 Fold change.

What about the “Experiment 2 Fold change” value [1] of the same compound?
Its value is 2.5 Fold change.

What about the “Experiment 3 Fold change” value [1] of the same compound?
The value was 2.5 Fold change.

And the “Experiment 1 Fold change” value [2]?
Its value is 2.5 Fold change.

And the “Experiment 2 Fold change” value [2]?
Its value is 2.5 Fold change.

And the “Experiment 3 Fold change” value [2]?
The value was 2.5 Fold change.

What about the activity at […] ([2]; read-out: Experiment 1 % of activity) of the same compound?
The activity at […] was 100%.

And the activity at […] ([2]; read-out: Experiment 2 % of activity)?
The activity at […] was 100%.

What about the activity at […] ([2]; read-out: Experiment 3 % of activity) of the same compound?
Its activity at […] is 100%.

Which results are given for `CCCCCc1cc2c(c(O)c1C(=O)O)[C@@H]1C=C(C)CC[C@H]1C(C)(C)O2` [THCA, tetrahydrocannabinolic acid]?
Conclusions: Is CB1R agonist effect observed? ([1]; THCA or THC alone, 10 μM): Negative (Only treatments that the mean of three consecutive independent experiments shows a positive result: CB1R activity ≥ 2.5-fold increase or ≥ 4-fold increase are considered CB1R agonists or CB1R positive allosteric modulators); Experiment 1 Fold change ([1]; THCA or THC alone, 10 μM): 1.2 Fold change; Experiment 2 Fold change ([1]; THCA or THC alone, 10 μM): 1.1 Fold change; Experiment 3 Fold change ([1]; THCA or THC alone, 10 μM): 0.8 Fold change; Effect of cannabinoid on AKBA CB1R positive allosteric activity ([2]; AKBA 50 and 100 μM, THCA 10 μM or CBD 1 μM): reduced the AKBA allosteric activity; Conclusions: Is CB1R antagonist effect observed? ([2]; THCA or THC 10 μM without AKBA, % of activity data): Negative (Only treatments that the mean of three consecutive independent experiments show a positive result (CB1R activity ≤ 50%) are considered antagonists of CB1R activity); Experiment 1 % of activity [2, 3]: 163.2%; Experiment 2 % of activity [2, 3]: 118.4%; Experiment 3 % of activity [2, 3]: 86.5%; Experiment 1 Fold change [2, 4]: 4.1 Fold change; Experiment 2 Fold change [2, 4]: 3.0 Fold change; Experiment 3 Fold change [2, 4]: 2.2 Fold change; Conclusions: Is CB1R antagonist effect observed? ([2]; THCA or THC 10 μM without AKBA, positive allosteric activity, fold change data): Negative (Only treatments that the mean of three consecutive independent experiments show a positive result (CB1R activity ≥ 4-fold change) are considered positive CB1R allosteric agonists)
